# Columns and labels:
# [1] = Half life in cynomolgus monkey at 3 mg/kg, po; type: ADME, organism-based, Macaca fascicularis; design: dose 3 mg/kg, route oral; details: in vivo
# Cynomolgus monkey [2] = experiment: Ratio of dose normalized AUC in cynomolgus monkey at 10 mg/kg, po in presence of ketoconazole to dose normalized AUC in cynomolgus monkey at 10 mg/kg, po; type: ADME, organism-based, Macaca fascicularis; details: in vivo
# [3] = AUC in Sprague-Dawley rat at 10 mg/kg, po; type: ADME, organism-based; design: dose 10 mg/kg, route oral; details: plasma
# [4] = Tmax in cynomolgus monkey at 3 mg/kg, po in presence of ketoconazole; type: ADME, organism-based, Macaca fascicularis; design: dose 3 mg/kg, route oral; details: in vivo
# [5] = (§1) Drug metabolism in beagle dog liver microsomes after 30 mins by biphasic component Michaelis-Menten plot analysis; type: ADME, Canis lupus familiaris; details: beagle, liver microsomes
# Liver microsome [6] = experiment: as §1; type: ADME, Canis lupus familiaris; details: microsomes, 0.5 h
# [7] = Half life in cynomolgus monkey at 1 mg/kg, iv in presence of ketoconazole; type: ADME, organism-based, Macaca fascicularis; design: dose 1 mg/kg, route intravenous; details: in vivo
# [8] = biological target: MDR1A (P-glycoprotein, ABCB1) (Mus musculus, UniProt P21447); experiment: Activity of mouse MDR1A expressed in pig LLC-PK1 cells assessed as efflux ratio of permeability from basolateral to apical side to apical to basolateral side at 1 uM after 2 hrs; type: ADME, cell-based
# MDR1A (P-glycoprotein, ABCB1), sequence (P21447 whole entry): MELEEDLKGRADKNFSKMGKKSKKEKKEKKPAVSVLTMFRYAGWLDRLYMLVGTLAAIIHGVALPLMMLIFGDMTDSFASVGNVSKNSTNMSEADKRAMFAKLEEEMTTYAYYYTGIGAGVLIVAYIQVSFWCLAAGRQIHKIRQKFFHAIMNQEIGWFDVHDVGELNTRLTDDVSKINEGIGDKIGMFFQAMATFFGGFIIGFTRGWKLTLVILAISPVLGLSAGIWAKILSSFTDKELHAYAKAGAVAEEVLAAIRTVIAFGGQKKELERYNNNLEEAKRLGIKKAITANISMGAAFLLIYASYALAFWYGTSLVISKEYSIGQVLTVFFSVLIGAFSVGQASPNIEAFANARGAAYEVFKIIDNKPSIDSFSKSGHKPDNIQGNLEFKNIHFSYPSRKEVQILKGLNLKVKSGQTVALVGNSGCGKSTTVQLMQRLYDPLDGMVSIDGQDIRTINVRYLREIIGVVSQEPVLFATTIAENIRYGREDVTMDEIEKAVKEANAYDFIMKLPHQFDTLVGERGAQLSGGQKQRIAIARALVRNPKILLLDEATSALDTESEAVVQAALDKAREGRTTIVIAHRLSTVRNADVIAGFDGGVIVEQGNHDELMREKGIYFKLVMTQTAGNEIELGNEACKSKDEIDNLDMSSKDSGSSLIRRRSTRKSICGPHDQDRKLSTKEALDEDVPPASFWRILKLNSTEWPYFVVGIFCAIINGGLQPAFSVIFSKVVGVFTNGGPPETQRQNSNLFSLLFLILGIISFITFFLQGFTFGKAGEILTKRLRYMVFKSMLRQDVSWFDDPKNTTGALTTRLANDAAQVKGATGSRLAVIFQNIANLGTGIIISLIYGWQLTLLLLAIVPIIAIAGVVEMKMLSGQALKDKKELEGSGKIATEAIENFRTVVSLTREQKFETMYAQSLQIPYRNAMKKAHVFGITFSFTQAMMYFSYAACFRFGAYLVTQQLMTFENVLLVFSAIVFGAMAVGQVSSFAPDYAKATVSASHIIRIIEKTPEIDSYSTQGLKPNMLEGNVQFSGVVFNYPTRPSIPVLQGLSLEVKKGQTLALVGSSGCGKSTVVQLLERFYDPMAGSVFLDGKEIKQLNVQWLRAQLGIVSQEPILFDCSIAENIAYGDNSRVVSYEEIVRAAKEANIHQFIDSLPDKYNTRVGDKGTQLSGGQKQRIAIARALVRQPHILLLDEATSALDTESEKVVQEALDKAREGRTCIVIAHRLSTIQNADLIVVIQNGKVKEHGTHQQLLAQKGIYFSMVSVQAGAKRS
# [9] = AUC in cynomolgus monkey at 3 mg/kg, po in presence of ketoconazole; type: ADME, organism-based, Macaca fascicularis; design: dose 3 mg/kg, route oral; details: plasma
# [10] = Tmax in wild-type mouse at 3 mg/kg, po; type: ADME, organism-based; design: dose 3 mg/kg, route oral; details: in vivo
# [11] = Drug metabolism in cynomolgus monkey intestinal microsomes by Michaelis-Menten plot analysis; type: ADME, Macaca fascicularis, Intestine, Microsome
# [12] = Cmax in double-cannulated Sprague-Dawley rat jugular vein at 10 mg/kg, po; type: ADME, organism-based; design: dose 10 mg/kg, route oral
# [13] = AUC in cynomolgus monkey at 10 mg/kg, po; type: ADME, organism-based, Macaca fascicularis; design: dose 10 mg/kg, route oral; details: plasma
# [14] = Oral bioavailability in Sprague-Dawley rat at 3 mg/kg; type: ADME, organism-based; details: in vivo
# [15] = Ratio of drug level in blood to plasma in beagle dog at 0.25 uM after 10 mins by equilibrium dialysis technique; type: ADME, Canis lupus familiaris; details: blood and plasma
# [16] = Drug metabolism in beagle dog intestinal microsomes; type: ADME, Canis lupus familiaris, Intestine, Microsome
# [17] = Cmax in Sprague-Dawley rat at 10 mg/kg, po; type: ADME, organism-based; design: dose 10 mg/kg, route oral; details: in vivo
# [18] = AUC in Sprague-Dawley rat at 30 mg/kg, po; type: ADME, organism-based; design: dose 30 mg/kg, route oral; details: plasma
# [19] = Cmax in beagle dog at 3 mg/kg, po; type: ADME, organism-based, Canis lupus familiaris; design: dose 3 mg/kg, route oral; details: in vivo
# Cynomolgus monkey [20] = experiment: Ratio of dose normalized Cmax in cynomolgus monkey at 3 mg/kg, po in presence of ketoconazole to dose normalized Cmax in cynomolgus monkey at 3 mg/kg, po; type: ADME, organism-based, Macaca fascicularis; details: in vivo
# [21] = AUC in MDR1A/1B knock-out mouse at 3 mg/kg, po; type: ADME, organism-based; design: dose 3 mg/kg, route oral; details: plasma
# [22] = Oral bioavailability in Sprague-Dawley rat at 30 mg/kg; type: ADME, organism-based; details: in vivo
# [23] = Oral bioavailability in beagle dog at 3 mg/kg; type: ADME, organism-based, Canis lupus familiaris; details: in vivo
# [24] = Cmax in cynomolgus monkey at 3 mg/kg, po in presence of ketoconazole; type: ADME, organism-based, Macaca fascicularis; design: dose 3 mg/kg, route oral; details: in vivo
# [25] = Half life in cynomolgus monkey at 10 mg/kg, po; type: ADME, organism-based, Macaca fascicularis; design: dose 10 mg/kg, route oral; details: in vivo
# [26] = Fraction unbound in Sprague-Dawley rat liver microsomes at 0.25 uM by equilibrium dialysis technique; type: ADME
# [27] = Volume of distribution at steady state in cynomolgus monkey at 1 mg/kg, iv; type: ADME, organism-based, Macaca fascicularis; design: dose 1 mg/kg, route intravenous; details: in vivo, read-out: Vdss
# [28] = (§2) Drug metabolism in Sprague-Dawley rat liver microsomes after 7 mins by Michaelis-Menten plot analysis; type: ADME; details: Sprague-Dawley, liver microsomes
# Liver microsome [29] = experiment: as §2; type: ADME; details: microsomes, 7 min
# [30] = Drug metabolism in Sprague-Dawley rat intestinal microsomes; type: ADME, Intestine, Microsome
# [31] = Cmax in double-cannulated Sprague-Dawley rat portal vein at 10 mg/kg, po; type: ADME, organism-based; design: dose 10 mg/kg, route oral
# Rattus norvegicus = organism: Rattus norvegicus; experiment: Unbound intrinsic clearance in Sprague-Dawley rat; type: ADME, organism-based; details: in vivo
# [32] = Tmax in beagle dog at 3 mg/kg, po; type: ADME, organism-based, Canis lupus familiaris; design: dose 3 mg/kg, route oral; details: in vivo
# [33] = Blood clearance in Sprague-Dawley rat; type: ADME, organism-based
# [34] = Volume of distribution at steady state in cynomolgus monkey at 1 mg/kg, iv in presence of ketoconazole; type: ADME, organism-based, Macaca fascicularis; design: dose 1 mg/kg, route intravenous; details: in vivo, read-out: Vdss
# [35] = Clearance in cynomolgus monkey at 1 mg/kg, iv in presence of ketoconazole; type: ADME, organism-based, Macaca fascicularis; design: dose 1 mg/kg, route intravenous; details: in vivo
# [36] = Fraction unbound in beagle dog liver microsomes at 0.25 uM by equilibrium dialysis technique; type: ADME, Canis lupus familiaris
# Canis familiaris = organism: Canis familiaris; experiment: Hepatic blood clearance in beagle dog; type: ADME, organism-based, Canis lupus familiaris; details: in vivo
# [37] = Half life in beagle dog at 1 mg/kg, iv; type: ADME, organism-based, Canis lupus familiaris; design: dose 1 mg/kg, route intravenous; details: in vivo
# [38] = Drug metabolism in cynomolgus monkey liver microsomes after 15 mins by Michaelis-Menten plot analysis; type: ADME, Macaca fascicularis
# [39] = Blood clearance in cynomolgus monkey; type: ADME, organism-based, Macaca fascicularis
# [40] = Clearance in cynomolgus monkey at 1 mg/kg, iv; type: ADME, organism-based, Macaca fascicularis; design: dose 1 mg/kg, route intravenous; details: in vivo
# [41] = Oral bioavailability in Sprague-Dawley rat at 10 mg/kg; type: ADME, organism-based; details: in vivo
# [42] = Fraction unbound in cynomolgus monkey liver microsomes at 0.25 uM by equilibrium dialysis technique; type: ADME, Macaca fascicularis
# Cynomolgus monkey [43] = experiment: Ratio of dose normalized AUC in cynomolgus monkey at 1 mg/kg, iv in presence of ketoconazole to dose normalized AUC in cynomolgus monkey at 1 mg/kg, iv; type: ADME, organism-based, Macaca fascicularis; details: in vivo
# [44] = Volume of distribution at steady state in Sprague-Dawley rat at 1 mg/kg, iv; type: ADME, organism-based; design: dose 1 mg/kg, route intravenous; details: in vivo, read-out: Vdss
# [45] = Ratio of drug level in brain to plasma in MDR1A/1B knock-out mouse at 3 mg/kg, po; type: ADME, organism-based; design: dose 3 mg/kg, route oral; details: brain and plasma
# [46] = Oral bioavailability in cynomolgus monkey at 10 mg/kg; type: ADME, organism-based, Macaca fascicularis; details: in vivo
# [47] = Tmax in cynomolgus monkey at 3 mg/kg, po; type: ADME, organism-based, Macaca fascicularis; design: dose 3 mg/kg, route oral; details: in vivo
# [48] = Half life in beagle dog at 10 mg/kg, po; type: ADME, organism-based, Canis lupus familiaris; design: dose 10 mg/kg, route oral; details: in vivo
# [49] = Blood clearance in beagle dog; type: ADME, organism-based, Canis lupus familiaris
# [50] = Half life in cynomolgus monkey at 3 mg/kg, po in presence of ketoconazole; type: ADME, organism-based, Macaca fascicularis; design: dose 3 mg/kg, route oral; details: in vivo
smiles,measurement,setting,value
Cc1nn(C[C@H](F)CN2C3CCC2CC(OCc2cccc(F)c2)C3)c(=O)n1C (some centres undefined),half-life,[1],1.59 h
same,Ratio,Cynomolgus monkey [2],6.3
same,AUC,[3],170 ng·h/mL
same,Tmax,[4],1 h
same,Km at 0.5 h,[5],21.5 µM
same,Vmax,Liver microsome [6],0.72 nmol/min/mg
same,half-life,[7],1.96 h
same,"efflux ratio at 2 h, 1 µM",[8],3.14
same,AUC,[9],1550 ng·h/mL
same,Tmax,[10],0.5 h
same,Km,[11]; intestinal microsomes,34.6 µM
same,Vmax,[11]; microsomes,0.66 nmol/min/mg
same,Cmax,[12],1040 ng/mL
same,AUC,[13],1580 ng·h/mL
same,bioavailability,[14],2.6%
same,"blood plasma ratio at 10 min, 0.25 µM",[15],0.86
same,Drug metabolism,[16],metabolite_not_detected
same,Cmax,[17],200 ng/mL
same,AUC,[18],1420 ng·h/mL
same,Cmax,[19],20 ng/mL
same,Ratio,Cynomolgus monkey [20],1
same,AUC,[21],240 ng·h/mL
same,bioavailability,[22],15.1%
same,bioavailability,[23],1.2%
same,Cmax,[24],400 ng/mL
same,half-life,[25],2.95 h
same,fraction unbound at 0.25 µM,[26],1
same,Vd,[27],3.07 L/kg
same,Km at 7 min,[28],7.23 µM
same,Vmax,Liver microsome [29],1.42 nmol/min/mg
same,Drug metabolism,[30],metabolite_not_detected
same,Cmax,[31],10600 ng/mL
same,CL free,Rattus norvegicus,196 µL/min/mg
same,Tmax,[32],0.5 h
same,clearance,[33],60 mL/min/kg
same,Vd,[34],3.29 L/kg
same,clearance,[35],20.3 mL/min/kg
same,fraction unbound at 0.25 µM,[36],1
same,CLH,Canis familiaris,30.5 mL/min/kg
same,half-life,[37],1.04 h
same,Km at 0.25 h,[38]; liver microsomes,42.4 µM
same,Vmax,"[38]; microsomes, 0.25 h",3.58 nmol/min/mg
same,clearance,[39],22.3 mL/min/kg
same,clearance,[40],22.5 mL/min/kg
same,bioavailability,[41],5.3%
same,fraction unbound at 0.25 µM,[42],1
same,Ratio,Cynomolgus monkey [43],1
same,Vd,[44],2.54 L/kg
same,Kp,[45],8.3
same,bioavailability,[46],20.9%
same,Tmax,[47],1 h
same,half-life,[48],1.82 h
same,clearance,[49],32.8 mL/min/kg
same,half-life,[50],2.2 h
